Results published in patent US20050004070A1, “Anti-infectious carbohydrates” (priority 2001, published 2005).
“Also recorded” adds a separate entry of the source.

The molecules below were run on listeria bacteria, in particular Listeria monocytogenes (assay: Invasion and infection of mammal cells by listeria bacteria). Details: no method or numbers given.
Format: cell-based

Question: For `CC(=O)N[C@H]1[C@H](O[C@H]2[C@@H](O)[C@@H](CO)O[C@@H](O[C@@H]([C@H](O)[C@@H](O)C=O)[C@H](O)CO)[C@@H]2O)O[C@H](CO)[C@@H](O[C@@H]2O[C@@H](C)[C@@H](O)[C@@H](O)[C@@H]2O)[C@@H]1O[C@@H]1O[C@H](CO)[C@H](O)[C@H](O)[C@H]1O` [LNFP II], which “inhibitory action against listeria bacteria (invasion and infection of mammal cells)” value (shortened to “inhibitory action”) is on record?
Answer: The value was “did not shown any such action”.

Question: With LNFP III as the molecule, how does the “inhibitory action” value read?
Answer: The value was “did not shown any such action”.

Question: How did the “inhibitory action” value turn out when lacto-N-fucopentaose I [LNFP I] was run?
Answer: Its value is “particularly strong inhibitory effect; also recorded: strong, yet dose-dependant inhibitory action”.
